Key:
SETVI (Setaria viridis) [1] = assay: Postemergence herbicidal evaluation; format: in vivo, (L.) Beau; conditions: postemergence
Procedure, shortened: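 Visual injury score (0-9: stand, vigor, malformation, size, chlorosis, overall appearance vs untreated control) taken four to five weeks post-spray. Two-week-old seedlings received about 0.0040 to 1.000 kg/ha active compound in acetone/water with 0.5% TWEEN 20.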

ZEAMX (Corn, Field) = assay: Postemergence herbicidal evaluation; format: in vivo, Zea mays, L.; conditions: postemergence
Procedure, shortened: (§1)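 Visual 0–9 injury scores versus control plants, covering stand, vigour, malformation, size, chlorosis and general appearance, taken four to five weeks post-spray and averaged over replicate tests. Plants were sprayed at roughly two weeks old and held on greenhouse benches.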

SETVI (Setaria viridis) [2] = assay: Preemergence herbicidal evaluation; format: in vivo, (L.) Beau; conditions: rated 4-5 weeks after treatment
Procedure, shortened: (§2)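 Rating 0–9, visual, vs control; 4–5 wk after spraying seeded cups with compound in aq. acetone; conventional greenhouse care.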

[3] = tested on: ECHCG (Echinochloa crus-galli); assay: Preemergence herbicidal evaluation; format: in vivo, (L.) Beau; conditions: rated 4-5 weeks after treatment
Procedure, shortened: as §2

[4] = tested on: SAGPY (Sagittaria pygmaea); assay: Flooded paddy, preemergence weed control; format: in vivo, L.; conditions: rated 3-4 weeks after treatment, 0-9 rating scale
Procedure, shortened: (§3)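 Seeds or propagules were planted in the top 0.5 cm of silt loam soil and kept flooded 1.5–3 cm above the surface throughout, then held in the greenhouse. Injury was rated visually on a 0–9 scale against untreated controls, covering stand, vigor, malformation, size and chlorosis.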

ORYSAT (Rice, Tebonnet) [5] = assay: Preemergence herbicidal evaluation; format: in vivo, Oryza sativa, (L.) Tebonnet; conditions: rated 4-5 weeks after treatment
ORYSAT (Rice, Tebonnet) [6] = assay: Flooded paddy, post-transplant rice tolerance; format: in vivo, Oryza sativa, (L.) Tebonnet; conditions: flooded paddy, post-transplant rice, rated 3-4 weeks after treatment, 0-9 rating scale
Procedure, shortened: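 Scores (0-9) reflect visual injury relative to untreated plants in flooded silt loam. Each pot held two transplanted ten-day-old seedlings under 1.5 to 3 cm standing water in the greenhouse.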

[7] = tested on: MOOVA (Monochoria vaginalis); assay: Flooded paddy, preemergence weed control; format: in vivo, Presl.; conditions: rated 3-4 weeks after treatment, 0-9 rating scale
Procedure, shortened: as §3

[8] = tested on: ECHORC (Echinochloa oryzoides); assay: Flooded paddy, preemergence weed control; format: in vivo, Echinochloa oryzoides (Ard.) Fritsch.; conditions: rated 3-4 weeks after treatment, 0-9 rating scale
Procedure, shortened: as §3

[9] = tested on: IPOHE (Ipomoea hederacea); assay: Postemergence herbicidal evaluation; format: in vivo, (L.) Jacq.; conditions: postemergence
Procedure, shortened: as §1

[10] = tested on: IPOHE (Ipomoea hederacea); assay: Preemergence herbicidal evaluation; format: in vivo, (L.) Jacq.; conditions: rated 4-5 weeks after treatment
ORYSAT (Rice, Tebonnet) [11] = assay: Postemergence herbicidal evaluation; format: in vivo, Oryza sativa, (L.) Tebonnet; conditions: postemergence
Procedure, shortened: as §1

GALAP (Galium aparine) = assay: Postemergence herbicidal evaluation; format: in vivo; conditions: postemergence
Procedure, shortened: as §1

CYPIR (Cyperus iria) = assay: Flooded paddy, preemergence weed control; format: in vivo; conditions: rated 3-4 weeks after treatment, 0-9 rating scale
Procedure, shortened: as §3

[12] = tested on: ECHCG (Echinochloa crus-galli); assay: Postemergence herbicidal evaluation; format: in vivo, (L.) Beau; conditions: postemergence
Procedure, shortened: as §1

[13] = tested on: CASOB (Cassia obtusifolia); assay: Preemergence herbicidal evaluation; format: in vivo, L.; conditions: rated 4-5 weeks after treatment
Procedure, shortened: as §2

[14] = tested on: CHEAL (Chenopodium album); assay: Preemergence herbicidal evaluation; format: in vivo, L.; conditions: rated 4-5 weeks after treatment
Procedure, shortened: as §2

[15] = tested on: AMBEL (Ambrosia artemisifolia); assay: Preemergence herbicidal evaluation; format: in vivo, L.; conditions: rated 4-5 weeks after treatment
Procedure, shortened: as §2

[16] = tested on: GLXMAW (Soybean, Williams); assay: Postemergence herbicidal evaluation; format: in vivo, Glycine max, (L.) Merr. cv Williams; conditions: postemergence
Procedure, shortened: as §1

[17] = tested on: ABUTH (Abutilon theophrasti); assay: Postemergence herbicidal evaluation; format: in vivo, Medic.; conditions: postemergence
Procedure, shortened: as §1

## Cn1c(C(F)(F)F)cc(=O)n(-c2ccc3snc(-c4sccc4CBr)c3c2)c1=O [Compound 80, 3-[3-[3-(bromomethyl)-2-thienyl]-1,2-benzisothiazol-5-yl]-1-methyl-6-(trifluoromethyl)uracil]
SETVI (Setaria viridis) [1]; rate 0.0320 kg/ha
  SETVI herbicidal rating: 2.0
SETVI (Setaria viridis) [1]; rate 0.0620 kg/ha
  SETVI herbicidal rating: 3.0
ZEAMX (Corn, Field); rate 0.0320 kg/ha
  ZEAMX herbicidal rating: 3.5
ZEAMX (Corn, Field); rate 0.0620 kg/ha
  ZEAMX herbicidal rating: 5.5
SETVI (Setaria viridis) [2]; Rate 0.0620 kg/ha
  Preemergence herbicidal rating SETVI: 1.5
SETVI (Setaria viridis) [2]; Rate 0.1250 kg/ha
  Preemergence herbicidal rating SETVI: 4.5
SETVI (Setaria viridis) [2]; Rate 0.2500 kg/ha
  Preemergence herbicidal rating SETVI: 7.5
[3]; Rate 0.0620 kg/ha
  Preemergence herbicidal rating ECHCG: 0.5
[3]; Rate 0.1250 kg/ha
  Preemergence herbicidal rating ECHCG: 2.0
[3]; Rate 0.2500 kg/ha
  Preemergence herbicidal rating ECHCG: 6.5
[4]; rate 0.0080 kg/ha
  herbicidal rating, SAGPY: 0.0
[4]; rate 0.0320 kg/ha
  herbicidal rating, SAGPY: 4.5
[4]; rate 0.1250 kg/ha
  herbicidal rating, SAGPY: 7.0
ORYSAT (Rice, Tebonnet) [5]; Rate 0.0620 kg/ha
  Preemergence herbicidal rating ORYSAT: 0.5
ORYSAT (Rice, Tebonnet) [5]; Rate 0.1250 kg/ha
  Preemergence herbicidal rating ORYSAT: 2.5
ORYSAT (Rice, Tebonnet) [5]; Rate 0.2500 kg/ha
  Preemergence herbicidal rating ORYSAT: 6.0
ORYSAT (Rice, Tebonnet) [6]; rate 0.0080 kg/ha
  herbicidal rating, ORYSAT (rice tolerance): 2.5
ORYSAT (Rice, Tebonnet) [6]; rate 0.0320 kg/ha
  herbicidal rating, ORYSAT (rice tolerance): 5.5
ORYSAT (Rice, Tebonnet) [6]; rate 0.1250 kg/ha
  herbicidal rating, ORYSAT (rice tolerance): 8.0
[7]; rate 0.0080 kg/ha
  herbicidal rating, MOOVA: 0.0
[7]; rate 0.0320 kg/ha
  herbicidal rating, MOOVA: 9.0
[7]; rate 0.1250 kg/ha
  herbicidal rating, MOOVA: 9.0
[8]; rate 0.0080 kg/ha
  herbicidal rating, ECHORC: 1.0
[8]; rate 0.0320 kg/ha
  herbicidal rating, ECHORC: 4.0
[8]; rate 0.1250 kg/ha
  herbicidal rating, ECHORC: 8.0
[9]; rate 0.0320 kg/ha
  IPOHE herbicidal rating: 9.0
[9]; rate 0.0620 kg/ha
  IPOHE herbicidal rating: 9.0
[10]; Rate 0.0620 kg/ha
  Preemergence herbicidal rating IPOHE: 0.5
[10]; Rate 0.1250 kg/ha
  Preemergence herbicidal rating IPOHE: 2.0
[10]; Rate 0.2500 kg/ha
  Preemergence herbicidal rating IPOHE: 4.0
ORYSAT (Rice, Tebonnet) [11]; rate 0.0320 kg/ha
  ORYSAT herbicidal rating: 3.5
ORYSAT (Rice, Tebonnet) [11]; rate 0.0620 kg/ha
  ORYSAT herbicidal rating: 3.5
GALAP (Galium aparine); rate 0.0320 kg/ha
  GALAP herbicidal rating: 3.0
GALAP (Galium aparine); rate 0.0620 kg/ha
  GALAP herbicidal rating: 4.0
CYPIR (Cyperus iria); rate 0.0080 kg/ha
  herbicidal rating, CYPIR: 0.0
CYPIR (Cyperus iria); rate 0.0320 kg/ha
  herbicidal rating, CYPIR: 4.5
CYPIR (Cyperus iria); rate 0.1250 kg/ha
  herbicidal rating, CYPIR: 9.0
[12]; rate 0.0320 kg/ha
  ECHCG herbicidal rating: 0.0
[12]; rate 0.0620 kg/ha
  ECHCG herbicidal rating: 0.0
[13]; Rate 0.0620 kg/ha
  Preemergence herbicidal rating CASOB: 0.0
[13]; Rate 0.1250 kg/ha
  Preemergence herbicidal rating CASOB: 0.0
[13]; Rate 0.2500 kg/ha
  Preemergence herbicidal rating CASOB: 1.5
[14]; Rate 0.0620 kg/ha
  Preemergence herbicidal rating CHEAL: 5.5
[14]; Rate 0.1250 kg/ha
  Preemergence herbicidal rating CHEAL: 7.5
[14]; Rate 0.2500 kg/ha
  Preemergence herbicidal rating CHEAL: 9.0
[15]; Rate 0.0620 kg/ha
  Preemergence herbicidal rating AMBEL: 5.0
[15]; Rate 0.1250 kg/ha
  Preemergence herbicidal rating AMBEL: 9.0
[15]; Rate 0.2500 kg/ha
  Preemergence herbicidal rating AMBEL: 9.0
[16]; rate 0.0320 kg/ha
  GLXMAW herbicidal rating: 5.0
[16]; rate 0.0620 kg/ha
  GLXMAW herbicidal rating: 7.0
[17]; rate 0.0320 kg/ha
  ABUTH herbicidal rating: 6.0
[17]; rate 0.0620 kg/ha
  ABUTH herbicidal rating: 9.0
